Source: PMC11558128 (Advanced Science, 2024)
Positions of bridges follow the written chain, without caps; N, C: chain ends. Residues, ends and D or L forms follow the SMILES beside them.

What follows are compounds tested against T1, rKv4.2 (Rattus norvegicus, UniProt Q63881) (assay: cell-based). Settings: analogue compared with its parent toxin.
T1 construct: expressed in transfected cells; host or cells: HEK293T
T1 sequence (Q63881 1-630): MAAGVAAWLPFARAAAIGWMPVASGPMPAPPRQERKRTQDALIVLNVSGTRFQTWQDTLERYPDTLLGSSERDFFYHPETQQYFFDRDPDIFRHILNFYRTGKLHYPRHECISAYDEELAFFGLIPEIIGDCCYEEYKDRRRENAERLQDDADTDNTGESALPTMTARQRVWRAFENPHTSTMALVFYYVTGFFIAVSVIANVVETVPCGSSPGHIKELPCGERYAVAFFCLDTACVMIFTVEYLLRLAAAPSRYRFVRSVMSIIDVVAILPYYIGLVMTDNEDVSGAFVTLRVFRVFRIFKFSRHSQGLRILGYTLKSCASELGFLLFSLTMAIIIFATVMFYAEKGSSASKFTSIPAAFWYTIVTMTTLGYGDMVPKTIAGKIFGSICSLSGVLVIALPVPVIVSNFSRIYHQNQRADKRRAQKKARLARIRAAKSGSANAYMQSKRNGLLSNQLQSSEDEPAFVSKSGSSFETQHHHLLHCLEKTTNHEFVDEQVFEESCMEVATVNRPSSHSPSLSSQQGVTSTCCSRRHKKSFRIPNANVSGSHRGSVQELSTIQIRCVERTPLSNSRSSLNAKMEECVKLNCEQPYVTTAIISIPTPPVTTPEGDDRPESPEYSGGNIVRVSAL
With `CC(C)C[C@@H]1NC(=O)[C@H](Cc2ccc(O)cc2)NC(=O)[C@H](CC(N)=O)NC(=O)[C@H](CCCCN)NC(=O)[C@@H]2CSSC[C@H](NC(=O)CNC(=O)[C@@H](N)CCCCN)C(=O)N[C@@H](CCCCN)C(=O)NCC(=O)N[C@@H](Cc3ccccc3)C(=O)NCC(=O)N[C@@H](CC(=O)O)C(=O)N[C@@H](CO)C(=O)N[C@H]3CSSC[C@H](NC1=O)C(=O)N[C@@H](CO)C(=O)N[C@@H](CO)C(=O)N[C@@H](C)C(=O)N[C@@H](Cc1c[nH]cn1)C(=O)N[C@@H](CCCCN)C(=O)N[C@@H](Cc1c[nH]c4ccccc14)C(=O)N[C@H](C(=O)N[C@@H](CCCCN)C(=O)N[C@H](C(=O)N[C@@H](Cc1ccc(O)cc1)C(=O)N[C@@H](CC(C)C)C(=O)N[C@H](C(N)=O)C(C)C)C(C)C)CSSC[C@H](NC(=O)[C@H](CCC(=O)O)NC(=O)[C@H](CC(N)=O)NC(=O)[C@H](CCCCN)NC(=O)CNC(=O)[C@@H]1CCCN1C(=O)[C@H]([C@@H](C)O)NC3=O)C(=O)N2` [HNTX-III-H4-K25A] (H-KGCKGFGDSCTPGKNECCKNYLCSSAHKWCKVYLV-NH2; disulfide 3-18, 10-23, 17-30; N-terminus and C-terminus assumed) the “inhibition of rKv4.2, in words” value was “disappeared”.

Same assay, conditions: whole-cell patch clamp, HEK293T; mean ± SEM, n = 3-8; SEM; read-out: IC50 on rKv4.2 WT
For `CC(C)C[C@H](NC(=O)[C@H](Cc1ccc(O)cc1)NC(=O)[C@@H](NC(=O)[C@H](CCCCN)NC(=O)[C@@H]1CSSC[C@@H]2NC(=O)[C@H](CCC(=O)O)NC(=O)[C@H](CC(N)=O)NC(=O)[C@H](CCCCN)NC(=O)CNC(=O)[C@@H]3CCCN3C(=O)[C@H]([C@@H](C)O)NC(=O)[C@@H]3CSSC[C@H](NC(=O)[C@H](CC(C)C)NC(=O)[C@H](Cc4ccc(O)cc4)NC(=O)[C@H](CC(N)=O)NC(=O)[C@@H]4CCCN4C(=O)[C@H](CSSC[C@H](NC(=O)CN)C(=O)N[C@@H](CCCCN)C(=O)NCC(=O)N[C@@H](Cc4ccccc4)C(=O)NCC(=O)N[C@@H](CC(=O)O)C(=O)N[C@@H](CO)C(=O)N3)NC2=O)C(=O)N[C@@H](CO)C(=O)N[C@@H](CO)C(=O)N[C@@H](CCCCN)C(=O)N[C@@H](Cc2c[nH]cn2)C(=O)N[C@@H](CCCCN)C(=O)N[C@@H](Cc2c[nH]c3ccccc23)C(=O)N1)C(C)C)C(N)=O` [A21L] (H-GCKGFGDSCTPGKNECCPNYLCSSKHKWCKVYL-NH2; disulfide 2-17, 9-22, 16-29), the IC50 was 60 ± 10 nM. `CC(C)C[C@H](NC(=O)[C@H](Cc1ccc(O)cc1)NC(=O)[C@@H](NC(=O)[C@H](CCCCN)NC(=O)[C@@H]1CSSC[C@@H]2NC(=O)[C@H](CCC(=O)O)NC(=O)[C@H](CC(N)=O)NC(=O)[C@H](CCCCN)NC(=O)CNC(=O)[C@@H]3CCCN3C(=O)[C@H]([C@@H](C)O)NC(=O)[C@@H]3CSSC[C@H](NC(=O)[C@H](C(C)C)NC(=O)[C@H](Cc4ccc(O)cc4)NC(=O)[C@H](CC(N)=O)NC(=O)[C@@H]4CCCN4C(=O)[C@H](CSSC[C@H](NC(=O)CN)C(=O)N[C@@H](CCCCN)C(=O)NCC(=O)N[C@@H](Cc4ccccc4)C(=O)NCC(=O)N[C@@H](CC(=O)O)C(=O)N[C@@H](CO)C(=O)N3)NC2=O)C(=O)N[C@@H](CO)C(=O)N[C@@H](CO)C(=O)N[C@@H](CCCCN)C(=O)N[C@@H](Cc2c[nH]cn2)C(=O)N[C@@H](CCCCN)C(=O)N[C@@H](Cc2c[nH]c3ccccc23)C(=O)N1)C(C)C)C(N)=O` [A21V] (H-GCKGFGDSCTPGKNECCPNYVCSSKHKWCKVYL-NH2; disulfide 2-17, 9-22, 16-29) was tested, and the IC50 was 1000 ± 144 nM. `CC(C)C[C@H](NC(=O)[C@H](Cc1ccc(O)cc1)NC(=O)[C@@H](NC(=O)[C@H](CCCCN)NC(=O)[C@@H]1CSSC[C@@H]2NC(=O)[C@H](CCC(=O)O)NC(=O)[C@H](CC(N)=O)NC(=O)[C@H](CCCCN)NC(=O)CNC(=O)[C@@H]3CCCN3C(=O)[C@H]([C@@H](C)O)NC(=O)[C@@H]3CSSC[C@H](NC(=O)[C@H](C)NC(=O)[C@H](Cc4ccc(O)cc4)NC(=O)[C@H](CC(N)=O)NC(=O)[C@@H]4CCCN4C(=O)[C@H](CSSC[C@H](NC(=O)CN)C(=O)N[C@@H](CCCCN)C(=O)NCC(=O)N[C@@H](CC(C)C)C(=O)NCC(=O)N[C@@H](CC(=O)O)C(=O)N[C@@H](CO)C(=O)N3)NC2=O)C(=O)N[C@@H](CO)C(=O)N[C@@H](CO)C(=O)N[C@@H](CCCCN)C(=O)N[C@@H](Cc2c[nH]cn2)C(=O)N[C@@H](CCCCN)C(=O)N[C@@H](Cc2c[nH]c3ccccc23)C(=O)N1)C(C)C)C(N)=O` [F5L] (H-GCKGLGDSCTPGKNECCPNYACSSKHKWCKVYL-NH2; disulfide 2-17, 9-22, 16-29) showed an IC50 of 10000 ± 4000 nM. `CC(C)C[C@H](NC(=O)[C@H](Cc1ccc(O)cc1)NC(=O)[C@@H](NC(=O)[C@H](CCCCN)NC(=O)[C@@H]1CSSC[C@@H]2NC(=O)[C@H](CCC(=O)O)NC(=O)[C@H](CC(N)=O)NC(=O)[C@H](CCCCN)NC(=O)CNC(=O)[C@@H]3CCCN3C(=O)[C@H]([C@@H](C)O)NC(=O)[C@@H]3CSSC[C@H](NC(=O)[C@H](C)NC(=O)[C@H](Cc4ccc(O)cc4)NC(=O)[C@H](CC(N)=O)NC(=O)[C@@H]4CCCN4C(=O)[C@H](CSSC[C@H](NC(=O)CN)C(=O)N[C@@H](CCCCN)C(=O)NCC(=O)N[C@@H](Cc4c[nH]c5ccccc45)C(=O)NCC(=O)N[C@@H](CC(=O)O)C(=O)N[C@@H](CO)C(=O)N3)NC2=O)C(=O)N[C@@H](CO)C(=O)N[C@@H](CO)C(=O)N[C@@H](CCCCN)C(=O)N[C@@H](Cc2c[nH]cn2)C(=O)N[C@@H](CCCCN)C(=O)N[C@@H](Cc2c[nH]c3ccccc23)C(=O)N1)C(C)C)C(N)=O` [F5W] (H-GCKGWGDSCTPGKNECCPNYACSSKHKWCKVYL-NH2; disulfide 2-17, 9-22, 16-29) showed an IC50 of 833 ± 81 nM. Compound `CC(C)C[C@H](NC(=O)[C@H](Cc1ccc(O)cc1)NC(=O)[C@@H](NC(=O)[C@H](CCCCN)NC(=O)[C@@H]1CSSC[C@@H]2NC(=O)[C@H](CCC(=O)O)NC(=O)[C@H](CC(N)=O)NC(=O)[C@H](CCCCN)NC(=O)CNC(=O)[C@@H]3CCCN3C(=O)[C@H]([C@@H](C)O)NC(=O)[C@@H]3CSSC[C@H](NC(=O)[C@H](C)NC(=O)[C@H](Cc4ccc(O)cc4)NC(=O)[C@H](CC(N)=O)NC(=O)[C@@H]4CCCN4C(=O)[C@H](CSSC[C@H](NC(=O)[C@@H](N)Cc4ccccc4)C(=O)N[C@@H](CCCCN)C(=O)NCC(=O)N[C@@H](Cc4ccccc4)C(=O)NCC(=O)N[C@@H](CC(=O)O)C(=O)N[C@@H](CO)C(=O)N3)NC2=O)C(=O)N[C@@H](CO)C(=O)N[C@@H](CO)C(=O)N[C@@H](CCCCN)C(=O)N[C@@H](Cc2c[nH]cn2)C(=O)N[C@@H](CCCCN)C(=O)N[C@@H](Cc2c[nH]c3ccccc23)C(=O)N1)C(C)C)C(N)=O` [G1F] (H-FCKGFGDSCTPGKNECCPNYACSSKHKWCKVYL-NH2; disulfide 2-17, 9-22, 16-29) has an IC50 of 176 ± 47 nM. `CC(C)C[C@H](NC(=O)[C@H](Cc1ccc(O)cc1)NC(=O)[C@@H](NC(=O)[C@H](CCCCN)NC(=O)[C@@H]1CSSC[C@@H]2NC(=O)[C@H](CCC(=O)O)NC(=O)[C@H](CC(N)=O)NC(=O)[C@H](CCCCN)NC(=O)[C@H](CCC(=O)O)NC(=O)[C@@H]3CCCN3C(=O)[C@H]([C@@H](C)O)NC(=O)[C@@H]3CSSC[C@H](NC(=O)[C@H](C)NC(=O)[C@H](Cc4ccc(O)cc4)NC(=O)[C@H](CC(N)=O)NC(=O)[C@@H]4CCCN4C(=O)[C@H](CSSC[C@H](NC(=O)CN)C(=O)N[C@@H](CCCCN)C(=O)NCC(=O)N[C@@H](Cc4ccccc4)C(=O)NCC(=O)N[C@@H](CC(=O)O)C(=O)N[C@@H](CO)C(=O)N3)NC2=O)C(=O)N[C@@H](CO)C(=O)N[C@@H](CO)C(=O)N[C@@H](CCCCN)C(=O)N[C@@H](Cc2c[nH]cn2)C(=O)N[C@@H](CCCCN)C(=O)N[C@@H](Cc2c[nH]c3ccccc23)C(=O)N1)C(C)C)C(N)=O` [G12E] (H-GCKGFGDSCTPEKNECCPNYACSSKHKWCKVYL-NH2; disulfide 2-17, 9-22, 16-29) was tested, and the IC50 was 359 ± 82 nM. Compound `CC(C)C[C@H](NC(=O)[C@H](Cc1ccc(O)cc1)NC(=O)[C@@H](NC(=O)[C@H](CCCCN)NC(=O)[C@@H]1CSSC[C@@H]2NC(=O)[C@H](CCC(=O)O)NC(=O)[C@H](CC(N)=O)NC(=O)[C@H](CCCCN)NC(=O)CNC(=O)[C@@H]3CCCN3C(=O)[C@H]([C@@H](C)O)NC(=O)[C@@H]3CSSC[C@H](NC(=O)[C@H](C)NC(=O)[C@H](Cc4ccc(O)cc4)NC(=O)[C@H](CCCCN)NC(=O)[C@@H]4CCCN4C(=O)[C@H](CSSC[C@H](NC(=O)CN)C(=O)N[C@@H](CCCCN)C(=O)NCC(=O)N[C@@H](Cc4ccccc4)C(=O)NCC(=O)N[C@@H](CC(=O)O)C(=O)N[C@@H](CO)C(=O)N3)NC2=O)C(=O)N[C@@H](CO)C(=O)N[C@@H](CO)C(=O)N[C@@H](CCCCN)C(=O)N[C@@H](Cc2c[nH]cn2)C(=O)N[C@@H](CCCCN)C(=O)N[C@@H](Cc2c[nH]c3ccccc23)C(=O)N1)C(C)C)C(N)=O` [N19K] (H-GCKGFGDSCTPGKNECCPKYACSSKHKWCKVYL-NH2; disulfide 2-17, 9-22, 16-29) has an IC50 of 475 ± 103 nM.
